From US20170197938A1, “A QUINOLINE DERIVATIVE FOR THE TREATMENT OF INFLAMMATORY DISEASES AND AIDS” (ABIVAX, priority 2014, published 2017)

Key:
[1] = system: HIV-1; experiment: Inhibition of HIV-1 production in infected PBMCs (p24 ELISA); type: cell-based; conditions: Human immunodeficiency virus 1, PBMC, read-out: Activity (IC50)
Method: Within this framework, the peripheral blood mononuclear cells (PBMCs) of healthy donors are isolated by centrifugation on a FICOLL gradient. The cells are then activated two days to a density of 1.5×10^6 cells/ml in RPMI plutamax medium supplemented with 10% fetal calf serum (FCS), 40 U/ml of IL2 and 5 μg/ml PHA, in an incubator at 37° C., 5% CO2.
A standard experiment using 96 plates to test 30 molecules in triplicates including positive and negative controls, is performed as follows:
PHA/IL2 activated PBMCs are washed with RPMI 10% FCS and resuspended at 1.5×10^6 cells/ml in RPMI glutamax 10% FCS, 40 U/ml I12. The cells are seeded in 96 wells (1.5 10^5 cells/well/100 μl). Viral infection is performed with 1 ng of AdaM/well. 100 μl of tested molecules at concentration of 20 μM are added to each well (10 μM final concentration). Virus production is determined by p24 antigen immunosorbent assays after 3 and 6 days of infection (Kit Innogenetics). Typically PBMCs are prepared from several healthy donors (around 11 different donors). […]
The efficacy of compound of formula (1) and of compound no 1 as disclosed in document WO 2012/080953 is measured by the HIV-specific enzyme-linked immunosorbent assay, p24 ELISA.
Drug efficacy is expressed as percent inhibition of the HIV p24 antigen in this rapid and sensitive assay.

[2] = system: miR-124; experiment: miR-124 expression in PBMCs treated with screened molecules (RT-qPCR, relative quantification); type: cell-based, human; conditions: for Fold-change compared to DMSO treated cells, Mean (miR-124 expression): PBMCs of healthy donors, 6 days treatment, quinoline derivative 5 μM, antiretroviral drugs 10 μM, mean of 4 or 5 donors; for effect on miR-124 expression in PBMCs (in words): antiretrovirals in four donors
Method: For that purpose, Peripheral blood mononuclear cells (PBMCs) of several healthy donors have been isolated by centrifugation on a FICOLL™ gradient according to standard protocols.
Briefly, 60-70 mL of buffy-coat are poured in a flask of 175 cm^2, and the volume is adjusted to 300 mL using PBS in order to obtain a dilution of about 5-fold of the buffy cost. 38 mL of diluted Buffy are then added to Falcon™ tubes of 50 mL comprising 12 mL of FICOLL™ (Histopack-1077) at ambient temperature. The preparation is centrifugated for 30 minutes at 515 rcf at ambient temperature. The lymphocyte ring is recovered from the Falcon™ tube with a transfer pipette (Pastette®) and then washed with PBS using centrifugation for 10 minutes at 290 rcf and at ambient temperature until the supernatant becomes clear.
The cells are then resuspended at 37° C. to a density of 1.5×10^6 cells/mL in RPMI Glutamax medium (Life Technologies Ref 61870-010) supplemented with 10% fetal calf serum (FCS) (Thermo Fisher Ref SV30160.03) and without activation. Cells are incubated for 48 hours at 37° C. under 5% CO2.
Six-well plates are used for the screening. Within each well comprising 3.10^6 cell/4 ml RPMI supplemented with 10% fetal calf serum and 40 U/mL IL-2 (Peprotech Ref 200-02) are added screened molecules. 100% DMSO (4 μL) is added to the well and tested as a negative control.
Each tested condition is set up as described here below and the final corresponding volume is adjusted accordingly in the well: • 1) Quinoline derivative in 100% DMSO—(5 μM and final volume 4 μL) • 2) Antiretroviral drugs: Maraviroc, Efavirenz, Darunavir, AZT (10 μM for all—final volume 4 μL).
The wells are incubated for three days at 37° C. under 5% CO2. Medium is changed (Day 3) according to standard protocols. Briefly, plates are centrifugated at 290 rcf for 5 minutes and 3 mL of supernatant is removed. 3 mL of RPMI supplemented with 10% fetal calf serum and 40 U/mL IL-2 is then added with 3 μL of a stock solution of screened molecule at 5 mM in 100% DMSO or 3 μL of 100% DMSO as a negative control.
Cells are recovered within Falcon™ tubes of 15 mL, centrifugated at 290 rcf for 5 minutes, and then washed in 10 mL PBS and further centrifugated at 290 rcf for 5 minutes. Cells are then resuspended in 1 mL PBS and counted.
6×10^6 cells are recovered and centrifugated at 290 rcf for 5 minutes. The cell pellet is lysed in 300 μL of ML lysis buffer from the Macherey Nagel Nucleospin® miRNA extraction kit (Macherey Nagel Ref 740971), and further stored at −20° C.
5 μL of 2×10^8 copies/μL of spike-in control (Ce_miR-39 from QIAGEN®—reference 219610 of SEQ ID No 6) are added for each sample. The miRNA extraction is achieved using the protocol from Macherey Nagel Nucleospin® miRNA extraction kit using an elution volume for RNAs of 50 μL and miRNAs of 30 μL, and further stored at −20° C.
The reverse transcription step is followed for 12 μL of miRNA using the miScript RT II reverse transcription (RT) kit from QIAGEN® using the miScript HiSpec buffer, and further stored at −20° C.
The quantitative PCR step is achieved using the QIAGEN® miScript SYBR® Green PCR kit and miScript Primer Assays according to the manufacturer's protocol.
The reaction is repeated in triplicates in a 384-well plate according to the manufacturer's protocol on a LightCycler® […] Roche Real-Time PCR system. Cycling conditions are also set up according to the manufacturer's protocol:
From a dilution to the 1/10th in H2O for the miR-124 qPCR (Hs'miR-124a) or to the 1/100th for reference/housekeeping gene qPCR (Hs_miR-26a and Hs_miR-191, using miScript Primer Assays (Hs_miR-124a, Hs_miR-26a and Hs_miR-191 or QIAGEN®—references ms00006622, ms00029239 and ms00003682).
The analysis is achieved using relative quantification models without efficiency correction (2^−ΔΔCp) using the average of crossing points (Cp) values from triplicates of miR-124 and the average of the average of triplicates of miR-26a and miR-191. […]

FC(F)(F)c1ccnc(Nc2ccc3c(OCCN4CCOCC4)ccc(Cl)c3n2)c1 was tested, and the IC50 [1] was 62.3 µM.

For Cc1cn([C@H]2C[C@H](N=[N+]=[N-])[C@@H](CO)O2)c(=O)[nH]c1=O [AZT], the “Fold-change compared to DMSO treated cells, Mean (miR-124 expression)” value (from here on “Fold-change”) [2] was 0.90 and the “effect on miR-124 expression in PBMCs (in words)” value (from here on “effect on miR-124 expression”) [2] was “none of the known antiretroviral (Maraviroc, Effavirenz, Darunavir or AZT) has any significant effect”.

FC(F)(F)c1ccnc(Nc2ccc3cc(OCCN4CCOCC4)cc(Cl)c3n2)c1 [Compound of formula (1), 8-chloro-6-(2-morpholinoethoxy)-N-(4-(trifluoromethyl)pyridin-2-yl)quinolin-2-amine] was tested, and the “Fold-change” value [2] was 32.04, the “effect on miR-124 expression” value [2] was “up-regulate the expression levels of miR-124” and the IC50 [1] was 0.43 µM.

For CC(C)CN(C[C@@H](O)[C@H](Cc1ccccc1)NC(=O)O[C@H]1CO[C@H]2OCC[C@H]21)S(=O)(=O)c1ccc(N)cc1 [Darunavir], the “Fold-change” value [2] was 1.08 and the “effect on miR-124 expression” value [2] was “none of the known antiretroviral (Maraviroc, Effavirenz, Darunavir or AZT) has any significant effect”.

For O=C1Nc2ccc(Cl)cc2[C@@](C#CC2CC2)(C(F)(F)F)O1 [Effavirenz, Efavirenz], the “Fold-change” value [2] was 0.46 and the “effect on miR-124 expression” value [2] was “none of the known antiretroviral (Maraviroc, Effavirenz, Darunavir or AZT) has any significant effect”.

With Maraviroc the “Fold-change” value [2] was 0.73 and the “effect on miR-124 expression” value [2] was “none of the known antiretroviral (Maraviroc, Effavirenz, Darunavir or AZT) has any significant effect”.
